Source: patent US20210369738A1, “PRODUCTION METHOD OF TELOMERASE ACTIVATORS AND TELOMERASE ACTIVATORS OBTAINED BY THIS METHOD” (IZMIR YUKSEK TEKNOLOJI ENSTITUSU, priority 2017, published 2021)

Columns and labels:
telomerase enzyme = target: T1, telomerase enzyme (Homo sapiens, UniProt O14746); test: Telomerase activation, TELOTAGGG PCR ELISAPLUS kit, HEKn cells; format: cell-based; conditions: 24-hour incubation
T1 construct: host or cells: HEKn (human primary epidermal keratinocytes)
Method: Telomerase activation tests were performed on selected molecules as follows; For culturing HEKn (Human Primer Epidermal Keratinocyte, ATCC; PCS-200-010) cells, the cell medium containing the components given in Table 2 is prepared and the cells are grown in the Dermal Cell Basal medium (PCS-200-030) supplemented with components in 5% CO2 environment at 37° C.
Telomerase activation was performed using the TELOTAGGG PCR ELISAPLUS kit (Roche; 12013789001, 16× version), a highly sensitive and quantitative method, according to the manufacturer's protocol, as follows:
After application of the selected molecules to HEKn cell lines at the defined dose interval and completion of 24-hour incubation, cells are collected and counted by hemocytometer. 2×10^5 cells are transferred to clean microcentrifuge tubes and then centrifuged at 3000×g for 5 min (at 4° C.). The supernatant is removed and the cells in the pellet are suspended with 200 μl of lysis buffer (Solution 1) and incubated on ice for 30 min. After incubation the lysates are centrifuged at 16,000×g for 20 min (at 4° C.) and the cooled supernatant is transferred to clean microcentrifuge tubes.
PCR is designed for sample group and control group. 25 μl reaction mixture (Solution 2) and 5 μl internal standard solution (Solution 3) are transferred to the PCR tubes for both the positive and negative sample as well as for the sample to be investigated for activation or the prepared master mixture is taken to a 30 μl PCR tube to contain this content. For the samples to be tested, 2 μl of each PCR sample is added from the cell lysate. For the control group, 1 μl of the low or high concentration TS8 control sample (Solution 4 or 5) is transferred to a separate PCR tube. From the lysis buffer (Solution 1), 1 μl is transferred to a separate PCR tube.
For each sample, 10 μl of the denaturing agent (Solution 7) is added to the nuclease-free 96-well plate. 2.5 μl of the amplified product is transferred to the plate and incubated for 10 min at +15 and +25° C. 100 μL Hybridization Buffer T (Solution 8) is added to a portion of the samples, 100 μL Hybridization Buffer IS (Solution 9) is added to the other portion. After homogenization, 100 μl of the reaction mixture is transferred to the MP module coated with streptavidin and the MP module is carefully closed with the special coating paper. After completion of the transfer process, the MP module is shaken at 300 rpm for 2 hours at 37° C. After incubation, the hybridization solutions are removed. Each well is washed 3 times with 250 μl of 1× wash buffer (Solution 10). The prepared anti-DIG-HRP working solution (Solution 11) is added to each of the wells. The MP module is sealed with special coating paper and incubated for 30 min at 15-25° C. with shaking at 300 rpm and the solution is carefully removed from the wells. Each well is washed 5 times in 1× wash buffer (Solution 10). From room temperature TMB substrate solution (Solution 13), 100 μl is added to each well. The MP module is covered with special coating paper and incubated at 15-25° C. for 10-20 minutes at 300 rpm with shaking. The color change is terminated by adding the post-incubation termination agent (Solution 14). The samples are measured at […] in a microplate reader for 30 min. Compounds showing telomerase activation in the 1.5-fold and higher levels according to DMSO used as a negative control were considered active.

[1] = as a telomerase activator; cited from earlier work

T1 sequence (O14746 whole entry): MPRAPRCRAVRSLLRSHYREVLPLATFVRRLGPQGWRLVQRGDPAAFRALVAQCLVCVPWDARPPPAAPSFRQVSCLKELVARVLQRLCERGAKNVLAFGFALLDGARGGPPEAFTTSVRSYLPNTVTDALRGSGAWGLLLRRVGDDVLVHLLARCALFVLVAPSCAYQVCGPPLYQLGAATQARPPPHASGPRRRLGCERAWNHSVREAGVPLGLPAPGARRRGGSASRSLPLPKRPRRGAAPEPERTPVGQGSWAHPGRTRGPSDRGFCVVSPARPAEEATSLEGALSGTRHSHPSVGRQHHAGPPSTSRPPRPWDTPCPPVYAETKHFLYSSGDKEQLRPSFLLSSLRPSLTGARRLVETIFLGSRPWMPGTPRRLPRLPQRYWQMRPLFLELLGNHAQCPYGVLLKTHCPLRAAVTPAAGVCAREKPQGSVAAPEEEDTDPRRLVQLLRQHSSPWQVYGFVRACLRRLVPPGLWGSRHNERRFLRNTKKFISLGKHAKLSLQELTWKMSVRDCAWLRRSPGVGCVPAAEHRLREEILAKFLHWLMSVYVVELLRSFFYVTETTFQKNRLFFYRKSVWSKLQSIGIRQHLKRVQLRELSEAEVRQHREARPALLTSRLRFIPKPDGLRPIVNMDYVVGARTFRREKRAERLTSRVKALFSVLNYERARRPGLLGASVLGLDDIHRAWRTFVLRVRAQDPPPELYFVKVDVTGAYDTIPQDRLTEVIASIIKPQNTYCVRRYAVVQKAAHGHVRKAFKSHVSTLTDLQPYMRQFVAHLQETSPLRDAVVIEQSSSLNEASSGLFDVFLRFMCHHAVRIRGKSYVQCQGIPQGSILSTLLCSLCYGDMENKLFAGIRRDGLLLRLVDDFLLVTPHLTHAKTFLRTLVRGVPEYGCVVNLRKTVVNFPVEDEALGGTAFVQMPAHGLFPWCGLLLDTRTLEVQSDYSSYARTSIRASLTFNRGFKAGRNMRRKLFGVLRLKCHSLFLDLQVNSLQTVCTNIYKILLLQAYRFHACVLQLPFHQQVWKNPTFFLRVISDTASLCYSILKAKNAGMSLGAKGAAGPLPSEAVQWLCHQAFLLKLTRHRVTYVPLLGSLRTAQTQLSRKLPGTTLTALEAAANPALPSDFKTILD

Row | Structure (SMILES) | Fold increase over negative control (DMSO) (telomerase enzyme; 0.1 nM) [fold] | Fold increase over negative control (DMSO) (telomerase enzyme; 0.5 nM) [fold] | Fold increase over negative control (DMSO) (telomerase enzyme; 2 nM) [fold] | Fold increase over negative control (DMSO) (telomerase enzyme; 10 nM) [fold] | Fold increase over negative control (DMSO) (telomerase enzyme; 30 nM) [fold] | Fold increase over negative control (DMSO) (telomerase enzyme; 50 nM) [fold] | Fold increase over negative control (DMSO) (telomerase enzyme; 100 nM) [fold] | Fold increase over negative control (DMSO) (telomerase enzyme; 300 nM) [fold] | Fold increase over negative control (DMSO) (telomerase enzyme; 1000 nM) [fold] | bioavailability [1] [%]
1 | CC(C)(O)[C@@H]1CC[C@](C)([C@H]2[C@@H](O)C[C@@]3(C)C4C[C@H](O)C5C(C)(C)[C@@H](O)CC[C@@]56C[C@@]46C[C@H](O)[C@]23C)O1 (some centres unmarked) [Molecule 6] |  | 9.23 | 10 | 6.38 | 2.37 |  |  |  |  | 
2 | CC1(C)C(=O)CC[C@]23C[C@]24CC[C@]2(C)[C@@H]([C@@]5(C)CC[C@@H](C(C)(C)O)O5)[C@@H](O)C[C@@]2(C)C4C[C@H](O)C13 (some centres unmarked) [Molecule 12] |  | 4.65 | 2.14 | 1.78 | 0.84 |  |  |  |  | 
3 | CC(C)(O)[C@@H]1CC[C@](C)([C@H]2[C@@H](O)C[C@@]3(C)C4C[C@H](O)C5C(C)(C)[C@@H](O)CC[C@@]56C[C@@]46CC[C@]23C)O1 (some centres unmarked) [Cycloastragenol] |  |  |  |  |  |  |  |  |  | 5
4 | CC(C)(O)[C@@H]1CC[C@](C)([C@H]2[C@@H](O)C[C@@]3(C)C4C[C@H](O)[C@@H](C(C)(C)O)[C@@]5(CCC(=O)O)C[C@@]45CC[C@]23C)O1 (some centres unmarked) [Molecule 11] |  | 2.08 | 1.9 | 1.73 | 3.17 |  |  |  |  | 
5 | CC1(C)C(=O)C[C@H](O)[C@]23C[C@]24CC[C@]2(C)[C@@H]([C@@]5(C)CC[C@@H](C(C)(C)O)O5)[C@@H](O)C[C@@]2(C)C4C[C@H](O)C13 (some centres unmarked) [Molecule 1] |  |  |  |  | 1.73 |  | 0.72 | 0.74 | 1.2 | 
6 | CC(C)(O)[C@@H]1CC[C@](C)([C@H]2[C@@H](O)C[C@@]3(C)C4C[C@H](O)C5C(C)(C)[C@@H](O)CC[C@@]56C[C@@]46C[C@@H](O)[C@]23C)O1 (some centres unmarked) [Molecule 4] |  |  | 2.13 | 2.22 |  | 2.4 |  | 2.13 |  | 
7 | CC(C)(O)[C@@H]1CC[C@](C)([C@H]2[C@@H](O)C[C@@]3(C)C4C[C@H](O)C5C(C)(C)[C@@H](O)CC[C@]5(C)C4=C[C@@H](O)[C@]23C)O1 (some centres unmarked) [Molecule 14] |  |  | 2.53 | 1.62 |  | 1.6 |  | 0.53 |  | 
8 | CC1(C)C(=O)CC[C@]23C[C@]24CC[C@]2(C)[C@@H]([C@@]5(C)CC[C@@H](C(C)(C)O)O5)[C@@H](O)C[C@@]2(CO)C4C[C@H](O)C13 (some centres unmarked) [Molecule 3] |  |  |  |  | 2.36 |  | 0.78 | 1.24 | 1.07 | 
9 | CC1(C)OC(=O)CC[C@]23C[C@]24CC[C@]2(C)[C@@H]([C@@]5(C)CC[C@@H](C(C)(C)O)O5)[C@@H](O)C[C@@]2(C)C4C[C@H](O)C13 (some centres unmarked) [Molecule 10] |  | 8.43 | 9.35 | 9.95 | 4.6 |  |  |  |  | 

The next lines start with results.

Row | Fold increase over negative control (DMSO) (telomerase enzyme; 0.1 nM) [fold] | Fold increase over negative control (DMSO) (telomerase enzyme; 0.5 nM) [fold] | Fold increase over negative control (DMSO) (telomerase enzyme; 2 nM) [fold] | Fold increase over negative control (DMSO) (telomerase enzyme; 10 nM) [fold] | Fold increase over negative control (DMSO) (telomerase enzyme; 30 nM) [fold] | Fold increase over negative control (DMSO) (telomerase enzyme; 50 nM) [fold] | Fold increase over negative control (DMSO) (telomerase enzyme; 100 nM) [fold] | Fold increase over negative control (DMSO) (telomerase enzyme; 300 nM) [fold] | Fold increase over negative control (DMSO) (telomerase enzyme; 1000 nM) [fold] | Structure (SMILES) | bioavailability [1] [%]
10 | 0.98 | 2.31 | 2.78 | 0.95 |  |  |  |  |  | CC(C)(O)[C@@H]1CC[C@](C)([C@H]2[C@@H](O)C[C@@]3(C)C4C[C@H](O)C5C(C)(C)[C@@H](O)CC[C@]5(C)C4=C[C@H](O)[C@]23C)O1 (some centres unmarked) [Molecule 16] | 
11 |  | 0.42 | 1.33 | 1 |  | 1.57 |  |  |  | CC(C)(O)[C@@H]1CC[C@](C)([C@H]2[C@@H](O)C[C@@]3(C)C4C[C@H](O)C5C(C)(C)[C@@H](O)CC[C@]5(C)C4=CC(=O)[C@]23C)O1 (some centres unmarked) [Molecule 17] | 
12 |  | 9.25 | 1.43 | 1.04 | 1.18 |  |  |  |  | CC1(C)C(=O)CC[C@]2(C)C3=CC[C@]4(C)[C@@H]([C@@]5(C)CC[C@@H](C(C)(C)O)O5)[C@@H](O)C[C@@]4(C)C3C[C@H](O)C12 (some centres unmarked) [Molecule 21] | 
13 |  | 2.65 | 1.24 | 11.32 | 1.93 |  |  |  |  | CC(C)(O)[C@@H]1CC[C@](C)([C@H]2[C@@H](O)C[C@@]3(C)C4C[C@H](O)[C@@H](C(C)(C)O)[C@](C)(CCC(=O)O)C4=CC[C@]23C)O1 (some centres unmarked) [Molecule 19] | 
14 |  | 9.01 | 5.23 | 6.04 | 7.86 |  |  |  |  | C=C(C)[C@@H]1[C@@H](O)CC2C(=CC[C@]3(C)[C@@H]([C@@]4(C)CC[C@@H](C(C)(C)O)O4)[C@@H](O)C[C@@]23C)[C@@]1(C)CCC(=O)O (some centres unmarked) [Molecule 20] | 
